In patent publication US20110319409A1, “7-AZA-QUINAZOLINE PDE10 INHIBITORS” (priority 2010, published 2011):

Biological target: T1, human PDE10A2 (Homo sapiens, UniProt Q9Y233)
T1 construct: made in house; host or cells: AD293 cells, transiently transfected; cytoplasmic fraction of the lysate used as enzyme
Assay: PDE10 fluorescence polarization (IMAP FP) assay
Format: biochemical
Settings: human PDE10 enzyme, FAM-labeled cAMP substrate 50 nM
Experimental: The activity of the compounds in accordance with the present invention as PDE10 inhibitors may be readily determined without undue experimentation using a fluorescence polarization (FP) methodology well known in the art (Huang, W., et al., J. Biomol Screen, 2002, 7: 215).
In a typical experiment the PDE10 inhibitory activity of the compounds of the present invention is determined in accordance with the following experimental method. PDE10A2 is amplified from human fetal brain cDNA (Clontech, Mountain View, Calif.) using a forward primer corresponding to nucleotides 56-77 of human PDE10A2 (Accession No. AF127480, Genbank Identifier 4894716), containing a Kozak consensus sequence, and a reverse primer Corresponding to nucleotides 2406-2413 of human PDE10A2 (Accession No. AF127480, Genbank Identifier 4894716). Amplification with Easy-A polymerase (Stratagene, La Jolla, Calif.) is carried out at 95° C. for 2 minutes followed by thirty three cycles of 95° C. for 40 seconds, 55° C. for 30 seconds, and 72° C. for 2 minutes 48 seconds. Final extension is at 72° C. for 7 minutes. The PCR product is TA cloned into pcDNA3.2-TOPO (Invitrogen, Carlsbad, Calif.) according to standard protocol.
AD293 cells with 70-80% confluency are transiently transfected with human PDE10A2/pcDNA3.2-TOPO using Lipofectamine 2000 according to manufacturer specifications (Invitrogen, Carlsbad, Calif.). Cells are harvested 48 hours post-transfection and lysed by sonication (setting 3, 10×5 sec pulses) in a buffer containing 20 mM HEPES, 1 mM EDTA and protease inhibitor cocktail (Roche). Lysate is collected by centrifugation at 75,000×g for 20 minutes. Supernatant containing the cytoplasmic fraction is used for evaluation of PDE10A2 activity.
The fluorescence polarization assay for cyclic nucleotide phosphodiesterases is performed using an IMAP® FP kit supplied by Molecular Devices, Sunnyvale, Calif. (product #R8139). IMAP® technology has been applied previously to phosphodiesterase assays (Huang, W., et al., J. Biomol Screen, 2002, 7: 215). Assays are performed at room temperature in 384-well microtiter plates with an incubation volume of 20.2 μL. Solutions of test compounds are prepared in DMSO and serially diluted with DMSO to yield 8 μL of each of 10 solutions differing by 3-fold in concentration, at 32 serial dilutions per plate. 100% inhibition is determined using a known PDE10 inhibitor, which can be any compound that is present at 5,000 times its Ki value in the assay described as follows, such as papaverine (see Siuciak, et al. Neuropharmacology (2006) 51:386-396; Becker, et al. Behav Brain Res (2008) 186(2):155-60; Threlfell, et al., J Pharmacol Exp Ther (2009) 328(3):785-795), 2-{4-[pyridin-4-yl-1-(2,2,2-trifluoroethyl)-1H-pyrazol-3-yl]phenoxymethyl}quinoline succinic acid or 2-[4-(1-methyl-4-pyridin-4-yl-1H-pyrazol-3-yl)-phenoxymethyl]quinoline succinic acid (see Schmidt, et al. J Pharmacol Exp Ther (2008) 325:681-690; Threlfell, et al., J Pharmacol Exp Ther (2009) 328(3): 785-795). 0% of inhibition is determined by using DMSO (1% final concentrations).
A Labcyte Echo 555 (Labcyte, Sunnyvale, Calif.) is used to dispense 200 nL from each well of the titration plate to the 384 well assay plate. A solution of enzyme (1/1600 dilution from aliquots; sufficient to produce 20% substrate conversion) and a separate solution of FAM-labeled cAMP PDE from Molecular Devices (product # R7506), at a final concentration of 50 nM are made in the assay buffer (10 mM Tris HCl, pH 7.2, 10 mM MgCl2, 0.05% NaN3 0.01% Tween-20, and 1 mM DTT). The enzyme and the substrate are then added to the assay plates in two consecutive additions of 10 μL, and then shaken to mix. The reaction is allowed to proceed at room temperature for 30 minutes. A binding solution is then made from the kit components, comprised of 80% Solution A, 20% Solution B and binding reagent at a volume of 1/600 the total binding solution. […]

T1 sequence (Q9Y233 267-1055): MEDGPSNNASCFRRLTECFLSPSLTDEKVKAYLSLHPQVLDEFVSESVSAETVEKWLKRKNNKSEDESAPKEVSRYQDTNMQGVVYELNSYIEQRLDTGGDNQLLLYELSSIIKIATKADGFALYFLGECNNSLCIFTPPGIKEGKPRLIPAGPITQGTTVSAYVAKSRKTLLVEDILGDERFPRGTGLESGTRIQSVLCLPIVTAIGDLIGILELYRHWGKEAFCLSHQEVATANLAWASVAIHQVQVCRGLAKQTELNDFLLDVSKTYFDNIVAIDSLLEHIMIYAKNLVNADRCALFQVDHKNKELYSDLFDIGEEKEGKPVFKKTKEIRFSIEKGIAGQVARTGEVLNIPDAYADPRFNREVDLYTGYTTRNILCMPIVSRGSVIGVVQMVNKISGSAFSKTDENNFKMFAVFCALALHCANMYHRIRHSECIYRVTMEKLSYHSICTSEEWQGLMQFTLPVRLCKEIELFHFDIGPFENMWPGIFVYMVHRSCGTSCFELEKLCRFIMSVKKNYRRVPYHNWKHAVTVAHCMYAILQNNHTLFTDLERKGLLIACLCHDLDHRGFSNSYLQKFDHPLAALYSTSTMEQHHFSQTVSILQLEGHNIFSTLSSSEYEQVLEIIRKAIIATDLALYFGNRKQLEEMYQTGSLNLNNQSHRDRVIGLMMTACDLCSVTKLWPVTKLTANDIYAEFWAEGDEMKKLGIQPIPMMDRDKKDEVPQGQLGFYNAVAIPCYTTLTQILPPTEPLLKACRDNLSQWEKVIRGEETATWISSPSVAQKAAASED

| Ki [nM] | SMILES |
| --- | --- |
| 1.4 | Cc1ncccc1-c1cccc(-c2nc(NCc3ccncc3)c3ccncc3n2)c1 [1-1, 2-[3-(2-Methylpyridin-3-yl)phenyl]-N-(pyridin-4-ylmethyl)pyrido[3,4-d]pyrimidin-4-amine] |
| 2.7 | COc1ncccc1-c1cccc(-c2nc(NCCO)c3ccncc3n2)c1 [1-3, 2-({2-[3-(2-Methoxypyridin-3-yl)phenyl]pyrido[3,4-d]pyrimidin-4-yl}amino)ethanol] |
| 0.41 | COc1ncccc1-c1cccc(-c2nc(NCc3cncnc3)c3ccncc3n2)c1 [1-4, 2-[3-(2-Methoxypyridin-3-yl)phenyl]-N-(pyrimidin-5-ylmethyl)pyrido[3,4-d]pyrimidin-4-amine] |
| 0.55 | c1cc(-c2nc(NCCN3CCOCC3)c3ccncc3n2)cc(-c2cncc3ccccc23)c1 [1-7] |
| 0.23 | O=S(=O)(c1cccc2c1CN(c1nc(NCc3ccncc3)c3ccncc3n1)CC2)N1CCOCC1 [1-8, 2-[8-(Morpholin-4-ylsulfonyl)-3,4-dihydroisoquinolin-2(1H)-yl]-N-(pyridin-4-ylmethyl)pyrido[3,4-d]pyrimidin-4-amine] |
| 2.7 | c1cc(-c2nc(OCc3ccncc3)c3ccncc3n2)cc(-c2ncco2)c1 [1-9, 2-[3-(1,3-Oxazol-2-yl)phenyl]-4-(pyridin-4-ylmethoxy)pyrido[3,4-d]pyrimidine] |
| 0.84 | COc1ncccc1-c1cncc(-c2nc(NCc3cncnc3)c3ccncc3n2)c1 [1-11, 2-(2′-methoxy-3,3′-bipyridin-5-yl)-N-(pyrimidin-5-ylmethyl)pyrido[3,4-d]pyrimidin-4-amine] |
| 1.4 | CC(C)OC(=O)c1cccc(-c2nc(NCc3ccncc3)c3ccncc3n2)c1 [1-13, isopropyl 3-{4-[(pyridin-4-ylmethyl)amino]pyrido[3,4-d]pyrimidin-2-yl}benzoate] |
| 0.4 | COc1ncccc1-c1cccc(-c2nc(NCc3ccncc3)c3ccncc3n2)c1 [A-6, 2-{3-[2-(Methyloxy)pyridin-3-yl]phenyl}-N-(pyridin-4-ylmethyl)pyrido[3, d]pyrimidin-4-amine] |
| 5.6 | c1ccc2c(c1)CCN(c1nc(NCc3ccncc3)c3ccncc3n1)C2 [B-4, 2-(3,4-Dihydroisoquinolin-2(1H)-yl)-N-(pyridin-4-ylmethyl)pyrido[3,4-d]pyrimidin-4-amine] |
| 131 | C(=C\c1nc(NCc2cncnc2)c2ccncc2n1)/c1ccccc1 [C-2, 2-[(E)-2-Phenylvinyl]-N-(pyrimidin-5-ylmethyl)pyrido[3,4-d]pyrimidin-4-amine] |
